Laboratory results from US20220315598A1, “Oxygen-containing Heterocyclic Compound, Preparation Method Therefor and Use Thereof” (SHANGHAI YINGLI PHARMACEUTICAL CO., LTD, priority 2019, published 2022).
Where two headings read alike, the source gives them in different places.

Legend:
MIA PaCa-2 cells = experiment: Proliferation inhibition on MIA PaCa-2 cell line by CTG method; format: cell-based, human; conditions: for IC50: Homo sapiens, MIA PaCa-2, Table 2, CellTiter Glo, 120 hours
Procedure: Experiments for Testing Proliferation Inhibition of Compounds on MIA PaCa-2 Cell Lines by CTG Method
40 μL of MIA PaCa-2 cell suspension was added to each well (except for peripheral wells) of 384-well plates. The plates were placed in a carbon dioxide incubator overnight. […] The plates were incubated in a carbon dioxide incubator for 120 hours. To the 384-well plates were added 25 μL of CellTiter Glo reagents, and the mixture was shaken in the dark for 10 minutes and incubated for 10 minutes. The plates were read on the EnVision plate reader. XLFit was used to draw inhibition rate curves of efficacy and IC50 values were calculated. […] “---” represents not determined.
MIA PaCa-2 was a human pancreatic cancer cell with KRAS G12C mutation. The activity of compounds can be evaluated by detecting the proliferation inhibitory activity of these compounds on such cell line.

NCI-H358 cells = experiment: Proliferation inhibition on NCI-H358 cell line by CTG method; format: cell-based, human; conditions: for IC50: CellTiter Glo, 120 hours
Procedure: (§1) NCI-H358 was a human non-small cell lung cancer cell with KRAS G12C mutation; A549 was a human non-small cell lung cancer cell with KRAS G12V mutation: and A375 was a wild-type malignant melanoma cell. The inhibitory effects of compounds on different mutations were evaluated by testing the proliferation inhibitory activity of these compounds on the three cell lines.
(§2) 40 μL of cell suspension to be tested was added to each well (except for peripheral wells) of three 384-well plates (plate 1: NCI-H358 cell suspension: plate 2: A549 cell suspension: plate 3: A375 cell suspension). The plates were placed in a carbon dioxide incubator overnight. […] The plates were incubated in a carbon dioxide incubator for 120 hours. To the 384-well plates were added 25 μL of CellTiter Glo reagents, and the mixture was shaken in the dark for 10 minutes and incubated for 10 minutes. The plates were read on the EnVision plate reader. XLFit was used to draw inhibition rate curves of efficacy and IC50 values were calculated. […] “---” represents not determined.
Experiments for Testing Proliferation Inhibition of Compounds on NCI-H358 Cell Lines by CTG Method

A549 cells = experiment: Proliferation inhibition on A549 cell line by CTG method; format: cell-based, human
Procedure: as §1, §2

A375 cells = experiment: Proliferation inhibition on A375 cell line by CTG method; format: cell-based; conditions: Table 1, CellTiter Glo, 120 hours, class symbol
Procedure: as §1, §2

[1] = Homo sapiens, NCI-H358, 120 h, Table 1, number, read-out: IC50 (μM): (H358)
[2] = Homo sapiens, NCI-H358, 120 h, Table 2, number, read-out: IC50 (nM) H358
[3] = Homo sapiens, A549, 120 h, Table 1, CellTiter Glo, class symbol
[4] = Homo sapiens, NCI-H358, 120 h, Table 1, class symbol, read-out: IC50 (μM): (H358)
[5] = Table 1, CellTiter Glo, 120 hours, class symbol
[6] = Table 1, class symbol, read-out: IC50 (μM): (H358)
[7] = Homo sapiens, NCI-H358, 120 h, Table 2, class symbol, read-out: IC50 (nM) H358

SMILES	IC50 (A549 cells; [3]) [µM]	IC50 (NCI-H358 cells; [4]) [µM]	IC50 (A375 cells; Homo sapiens, A-375) [µM]	also measured
C=CC(=O)N1CCN(c2nc(OC[C@@H]3CCCN3C)nc3c2CCN(c2ccccc2C(F)(F)F)C3)C[C@@H]1CC#N [Comparative compound 1′, reference compound]				IC50 (MIA PaCa-2 cells; number): 3.9 nM; IC50 (NCI-H358 cells; [1]): 0.0073 µM; IC50 (NCI-H358 cells; [2]): 0.0073 µM
C=CC(=O)N1CCN(c2nc(OC[C@@H]3CCCN3C)nc3c2CC[C@H](c2ccccc2C(F)(F)F)C3)C[C@@H]1CC#N [Comparative compound 3′, reference compound]				IC50 (MIA PaCa-2 cells; number): 8.3 nM
C=CC(=O)N1CCN(c2nc(OC[C@@H]3CCCN3C)nc3c2COCC3)C[C@@H]1CC#N [Compound 1]	> 1	> 1		IC50 (A549 cells; Homo sapiens, A549, 120 h, Table 1, CellTiter Glo, number): > 10 µM; IC50 (NCI-H358 cells; [1]): > 10 µM
C=CC(=O)N1CCN(c2nc(OC[C@@H]3CCCN3C)nc3c2COC(c2ccccc2C(F)(F)F)C3)C[C@@H]1CC#N (stereo partly shown) [Compound 2-1]				IC50 (A375 cells): > 1 µM; IC50 (A549 cells; [5]): > 1 µM; IC50 (NCI-H358 cells; [6]): < 1 µM
C=CC(=O)N1CCN(c2nc(OC[C@@H]3CCCN3C)nc3c2COC(c2ccccc2C(F)(F)F)C3)C[C@@H]1CC#N (stereo partly shown) [Compound 2-2]	> 1	< 1	> 1	IC50 (MIA PaCa-2 cells; number): 1.9 nM; proliferation inhibitory activity, comparison in words (MIA PaCa-2 cells; text on Table 2 (H358 and MIA PaCa-2 cells)): significantly better than that of the corresponding comparative compounds 1′ and 3′; IC50 (NCI-H358 cells; [1]): 0.0025 µM; IC50 (NCI-H358 cells; [2]): 0.0025 µM; proliferation inhibitory activity on NCI-H358 cells, in words (NCI-H358 cells; Table 1): significantly better than that of the corresponding comparative compound 1′
C=CC(=O)N1CCN(c2nc(OC[C@@H]3CCCN3C)nc3c2COC(c2cccc4ccccc24)C3)C[C@@H]1CC#N (stereo partly shown) [Compound 3-1]			> 1	
C=CC(=O)N1CCN(c2nc(OC[C@@H]3CCCN3C)nc3c2COC(c2cccc4ccccc24)C3)C[C@@H]1CC#N (stereo partly shown) [Compound 3-2]				IC50 (A375 cells): > 1 µM
C=CC(=O)N1CCN(c2nc(OC[C@@H]3CCCN3C)nc3c2COC(c2cccc4ccccc24)C3)C[C@@H]1CC#N (stereo partly shown) [Compound 3]	> 1	< 1		
C=CC(=O)N1CCN(c2nc(OC[C@@H]3CCCN3C)nc3c2COC(c2cccc4cccc(C)c24)C3)C[C@@H]1CC#N (stereo partly shown) [Compound 4-1]			> 1	IC50 (NCI-H358 cells; [6]): < 1 µM
C=CC(=O)N1CCN(c2nc(OC[C@@H]3CCCN3C)nc3c2COC(c2cccc4cccc(C)c24)C3)C[C@@H]1CC#N (stereo partly shown) [Compound 4-2]				IC50 (A375 cells): > 1 µM; IC50 (A549 cells; [5]): > 1 µM; IC50 (NCI-H358 cells; [6]): < 1 µM
C=CC(=O)N1CCN(c2nc(OC[C@@H]3CCCN3C)nc3c2COC(c2cccc4cccc(C)c24)C3)C[C@@H]1CC#N (stereo partly shown) [Compound 4]	> 1	< 1		
C=CC(=O)N1CCN(c2nc(OCCN(C)C)nc3c2COC(c2cccc4cccc(C)c24)C3)C[C@@H]1CC#N (stereo partly shown) [Compound 5]	> 1	< 1		
C=CC(=O)N1CCN(c2nc(OCCN(CC)CC)nc3c2COC(c2cccc4cccc(C)c24)C3)C[C@@H]1CC#N (stereo partly shown) [Compound 6-2]	> 1	< 1		
C=CC(=O)N1CCN(c2nc(OCCCN(C)C)nc3c2COC(c2cccc4cccc(C)c24)C3)C[C@@H]1CC#N (stereo partly shown) [Compound 7]	> 1	< 1		
C=CC(=O)N1CCN(c2nc(OC[C@@H]3CCCN3C)nc3c2COC(c2cccc4cccc(C)c24)C3)CC1 (stereo partly shown) [Compound 8]	> 1	< 1		
C=CC(=O)N1CCN(c2nc(N(C)CCN(C)C)nc3c2COC(c2cccc4cccc(C)c24)C3)C[C@@H]1CC#N (stereo partly shown) [Compound 9]	> 1	< 1		
C/C=C/C(=O)N1CCN(c2nc(OC[C@@H]3CCCN3C)nc3c2COC(c2cccc4cccc(C)c24)C3)C[C@@H]1CC#N (stereo partly shown) [Compound 10]	> 1	< 1	> 1	
C=CC(=O)N1CCN(c2nc(OC[C@@H]3CCCN3C)nc3c2COC(c2cccc4cccc(C)c24)C3)[C@@H](C)C1 (stereo partly shown) [Compound 11-2]	> 1	< 1	> 1	

SMILES	IC50 (A549 cells; [3]) [µM]	IC50 (NCI-H358 cells; [4]) [µM]	IC50 (A375 cells; Homo sapiens, A-375) [µM]	also measured
C=C(F)C(=O)N1CCN(c2nc(OC[C@@H]3CCCN3C)nc3c2COC(c2cccc4cccc(Cl)c24)C3)C[C@@H]1CC#N (stereo partly shown) [Compound 12-2]	> 1	< 1	> 1	
C=C(F)C(=O)N1CCN(c2nc(OC[C@@H]3CCCN3C)nc3c2COC(c2cccc4cccc(C)c24)C3)C[C@@H]1CC#N (stereo partly shown) [Compound 13]	> 1	< 1	> 1	
C=CC(=O)N1CCN(c2nc(OC(C)CN(C)C)nc3c2COC(c2cccc4cccc(C)c24)C3)C[C@@H]1CC#N (stereo partly shown) [Compound 14]	> 1	< 1	> 1	
C=CC(=O)N1CCN(c2nc(OC[C@@H]3CC(F)(F)CN3C)nc3c2COC(c2cccc4cccc(C)c24)C3)C[C@@H]1CC#N (stereo partly shown) [Compound 15]	> 1	< 1	> 1	
C=CC(=O)N1CCN(c2nc(OC[C@H]3CCCN3C)nc3c2COC(c2cccc4cccc(C)c24)C3)C[C@@H]1CC#N (stereo partly shown) [Compound 16]	> 1	< 1	> 1	
Cc1cccc2cccc(C3Cc4nc(OC[C@@H]5CCCN5C)nc(N5CCN(C(=O)/C=C/CN(C)C)[C@@H](CC#N)C5)c4CO3)c12 (stereo partly shown) [Compound 17]	> 1	< 1	> 1	
C=C(F)C(=O)N1CCN(c2nc(OC[C@H]3CCCN3C)nc3c2COC(c2ccccc2C(F)(F)F)C3)C[C@@H]1CC#N (stereo partly shown) [Compound 19-2]	> 1	< 1	> 1	
CC#CC(=O)N1CCN(c2nc(OC[C@@H]3CCCN3C)nc3c2COC(c2cccc4cccc(C)c24)C3)C[C@@H]1CC#N (stereo partly shown) [Compound 24]	> 1	< 1	> 1	
C=CC(=O)N1CCN(c2nc(OC[C@@H]3CCCN3C)nc3c2COC(c2cccc4cccc(Cl)c24)C3)C[C@@H]1CC#N (stereo partly shown) [Compound 25]	> 1	< 1	> 1	
C=C(F)C(=O)N1CCN(c2nc(OC[C@@H]3CCCN3C)nc3c2COC(c2ccccc2Cl)C3)C[C@@H]1CC#N (stereo partly shown) [Compound 30]	> 1	< 1	> 1	
Cc1cccc2cccc(C3Cc4nc(OC[C@@H]5CCCN5C)nc(N5CCN(C(=O)/C=C/CN6CCOCC6)[C@@H](CC#N)C5)c4CO3)c12 (stereo partly shown) [Compound 31]	> 1	< 1	> 1	
C=C(F)C(=O)N1CCN(c2nc(OC[C@H]3CCCN3C)nc3c2COC(c2cccc4cccc(Cl)c24)C3)C[C@@H]1CC#N (stereo partly shown) [Compound 32-2]	> 1	< 1	> 1	
CN(C)C/C=C/C(=O)N1CCN(c2nc(OC[C@@H]3CCCN3C)nc3c2CO[C@H](c2cccc4cccc(Cl)c24)C3)C[C@@H]1CC#N [Compound 36]				IC50 (NCI-H358 cells; [7]): < 1 µM
C=CC(=O)N1CCN(c2nc(OC[C@@H]3CCCN3C)nc3c2COC(c2cncc4ccccc24)C3)C[C@@H]1CC#N (stereo partly shown) [Compound 40]				IC50 (MIA PaCa-2 cells; class symbol): < 1000 nM
CN1CCC[C@H]1COc1nc2c(c(N3CCN(C#N)[C@@H](CC#N)C3)n1)CO[C@H](c1cccc3cccc(Cl)c13)C2 [Compound 41]				IC50 (NCI-H358 cells; [7]): < 1 µM
CC(=O)/C=C/C(=O)N1CCN(c2nc(OC[C@@H]3CCCN3C)nc3c2CO[C@H](c2cccc4cccc(Cl)c24)C3)C[C@@H]1CC#N [Compound 44]				IC50 (NCI-H358 cells; [7]): < 1 µM
C=CC(=O)N1CCN(c2nc(NCCN(C)C)nc3c2CO[C@H](c2cccc4cccc(Cl)c24)C3)C[C@@H]1CC#N [Compound 45]				IC50 (NCI-H358 cells; [7]): < 1 µM
C=CC(=O)N1CCN(c2nc(SCCN(C)C)nc3c2CO[C@H](c2cccc4cccc(Cl)c24)C3)C[C@@H]1CC#N [Compound 46]				IC50 (NCI-H358 cells; [7]): < 1 µM
